Experimental data from patent publication US5342612A, “Compositions for the treatment of mammalian diseases” (priority 1991, dated 1994).
Read-outs that look alike come from different tables or passages of the source.

Assays:
in vitro = format: cell-based, murine; conditions: mouse, p388.d1 cells, Relative Toxicity at 6 Hours
Experimental: (§1) Cell Lines: A20: B-cell tumor cell line 9C127: T-cell hybridoma cell line LB/62287: B-cell lymphoma cell line P388.D1: Macrophage tumor cell line
(§2) Cell lines (1×10^5 /well; >85% viability) are cultured in 24 well flat bottom plates in RPMI® medium (Gibco Laboratories, Grand Island, N.Y.) supplemented with 10% fetal calf serum, streptomycin (100 μg/mL) and penicillin (100 U/mL). Cultures are incubated (37° C., 10% CO2) with the following concentrations of vehicles:
(§3) c) 1.0%, 0.1% or 0.01% Triacetin or IMWITOR®
(§4) After a 72 hour or 6 hour incubation period, cells are harvested and counted by the Coulter Counter (Northwell Drive, England). Cell viability is determined using a Coulter Channelyzer.
(§5) The relative toxicity of the sample formulations to estimate the relative degree of toxicity for in vivo administration is carried out in vitro with the mammalian cell lines. Various concentrations of the vehicles are incubated for either 6 or 24 hours with the different mammalian cell lines. Immediate toxicity is evaluated at 6 hours by quantitating the number of dead cells in treated wells as compared to the untreated controls. Long term toxicity effects as well as effects which may inhibit cell growth are evaluated by measuring the relative degree of proliferation after an additional 48 hours incubation with ^3 H-thymidine.

[1] = Toxicity of formulations on mammalian cell lines (cell viability, Coulter); format: cell-based, murine
Experimental: as §1, §2, §3, §4, §5

[2] = system: A20 (B-cell tumor cell line); assay: as above; format: cell-based, murine
Experimental: as §1, §2, §3, §4, §5

[3] = system: Staphylococcus aureus mastitis (Newbould 305); assay: Efficacy of lysostaphin formulated in vehicles as intramammary infusion against Staphylococcus aureus mastitis; format: in vivo, bovine (dairy cows)
Excerpt: This experiment examines the ability of various lysostaphin formulations to eliminate S. aureus infections in the bovine mammary gland and compares the formulations with the testing of lysostaphin in a peanut oil-gel matrix, similar to that used in the commercial product CEFA-LAK®, which is used to treat mastitis in lactating dairy cows.
Lysostaphin is formulated in three vehicles: 15% w/v poloxamer 407 NF, 50% w/v glycerol or 10% w/v triacetin. Lysostaphin is also formulated in a peanut oil-gel matrix. These formulations are infused into the bovine mammary gland and the ability of these combinations to exact a biological response, either by curing the infection or by clearing the mammary gland temporarily of S. aureus, are assessed.
Recombinant lysostaphin is suspended in 10.0 mL of peanut oil vehicle or dissolved in 60.0 mL of appropriate sterile vehicle (sPBS) at a concentration of 10.0 mg/mL or 1.67 mg/mL, respectively. Each of 15% poloxamer 407 NF (PLURONIC® ACID F127, a polyoxyethylene-polyoxypropylene derivative, BASF Corporation, Parsippany, N.J.); 50% glycerol (Sigma Chemical Co., St. Louis, Mo.); and 10% triacetin (glyceryl triacetate, Sigma Chemical Co., St. Louis, Mo.) are prepared in sterile phosphate buffered saline.
Staphylococcus aureus infections of the mammary gland provide an excellent model system for evaluating therapeutic efficacy of a variety of pharmaceutical and biological agents for many infectious diseases of mammals. Therefore, experimental infections are established with S. aureus (strain Newbould 305). All mammary glands to be inoculated are free of pathogens and have individual quarter somatic cell counts (SCC) less than 200,000 cells/mL of milk. Inoculum is prepared from a four-hour culture grown in trypticase soy broth and diluted. Inoculations are made by infusion of 1.0 mL diluted culture containing 90 colony forming units of S. aureus (Newbould 305) into the teat cistern of a milked-out mammary quarter. Quarters which fail to establish an infection after six days from initial inoculation are reinfected.
Prepared in PBS is 50% glycerol and the solution is then sterile filtered (0.45μ). Poloxamer 407 NF is mixed overnight and prepared similarly. A 10% triacetin solution is prepared aseptically in sterile PBS. Appropriate amounts of lysostaphin is added so the final concentration is 1.67 mg/mL. All preparations are in a total volume of 60.0 mL and made the day of the infusion. All solutions are sterile filtered through a 0.45μ filter.
Duration of treatment: 3 consecutive PM milkings
Quarters are randomly assigned to one of six treatment groups. All quarters are infused with the appropriate vehicle (60.0 mL) with or without lysostaphin over three consecutive PM milkings. […]

S. aureus = assay: Potentiation of bacteriostatic activity of lysostaphin by vehicles (checkered analysis); format: cell-based, Staphylococcus aureus
Excerpt: In order to identify the nontoxic formulations for mammalian use, toxicity is employed as a method to eliminate direct bactericidal effects on the S. aureus, as well as potential toxic effects on the target animal. Compounds are formulated with r-lysostaphin at concentrations below toxic effects and compared to the bacteriostatic activity of r-lysostaphin in a saline formulation. Some compounds potentiate r-lysostaphin bacteriostatic activity by as much as 300-1000 fold.
Several surfactants, detergents, oils, emollients and membrane solubilizers are chosen as representative of various classes of compounds which may affect protein activity. These vehicles are then evaluated for toxicity and potentiation of the bacteriostatic effects of r-lysostaphin on S. aureus according to the methods described in the foregoing examples. […] Secondly, the vehicles are subjected to the toxicity test on murine cells in vitro. Viable cells are evaluated by trypan blue exclusion and normalized to an untreated control. Thereafter, dairy cattle are infused through the teat canal with various concentrations of the vehicle to make a determination of the irritation potential after intramammary infusion as a measure of mammalian toxicity. Milk samples are collected after infusion of said vehicles and the somatic cell count is determined. The Stimulation Index equals the post-infusion SCC divided by the pre-infusion SCC. The vehicles showing minimal toxicity to S. aureus and mammalian cells in vitro and in vivo are subsequent candidates for evaluation in the in vivo potentiation trials.
Various vehicle combinations are tested in a standard checkered analysis which simultaneously varies the concentration of both parameters to examine the individual contribution of each. Vehicles are all compared to r-lysostaphin in a saline solution, i.e., the potentiation index. […] Glycerol and triacetin, while only potentiating the activity of r-lysostaphin 6-8 fold, is manifested by bactericidal effects (see above Table IV).

mammary gland = conditions: bovine, in vivo
Experimental: Multiparous Holstein-Fresian dairy cattle cultured negative for infection and with individual quarter somatic cell counts less than 200,000 cells/mL are used. The lactating dairy cows receive a ration consisting of corn silage, alfalfa hay and concentrate which is formulated to provide recommended amounts of minerals and vitamins for a lactating dairy cow. Water is provided ad libitum.
The somatic cell count (SCC) of twelve normal glands are determined prior to treatment. Three groups of four quarters each receive an intramammary infusion of 10 mL to 60 mL of the respective vehicles identified in Example 1, 15% w/v poloxamer 407 NF (PLURONIC® F127), 50% w/v glycerol, 10% w/v triacetin (glyceryl triacetate) and the sPBS as a control. In vivo degree of irritation is measured by infusing a quarter of a mammary gland with the vehicle and measuring the SCC at 12, 36 and 60 hours after infusion. The data are expressed as the stimulation index which is calculated as the average experimental SCC divided by the control SCC.

[4] = system: LB/62287 (B-cell lymphoma cell line); assay: Toxicity of formulations on mammalian cell lines (cell viability, Coulter); format: cell-based, murine
Experimental: as §1, §2, §3, §4, §5

S. aureus mastitis = assay: Therapy of S. aureus bovine mastitis (background); conditions: in vivo efficacy trials; in words
[5] = mouse, a20 cells, Relative Toxicity at 6 Hours

Compound	viability at 6 h (in vitro) [%]	viability at 6 h ([1]; lb/62287 b-cell lymphoma, LB, 6 h, vehicle 0.01%, read-out: Relative Toxicity at 6 Hours) [%]	viability at 6 h ([1]; lb/62287 b-cell lymphoma, LB, 6 h, vehicle 0.1%, read-out: Relative Toxicity at 6 Hours) [%]	viability at 6 h ([1]; lb/62287 b-cell lymphoma, LB, 6 h, vehicle 1.0%, read-out: Relative Toxicity at 6 Hours) [%]	viability at 72 h ([1]; lb/62287 b-cell lymphoma, LB, 72 h, vehicle 0.01%, read-out: Relative Toxicity at 72 Hours) [%]	viability at 72 h ([1]; lb/62287 b-cell lymphoma, LB, 72 h, vehicle 0.1%, read-out: Relative Toxicity at 72 Hours) [%]	viability at 72 h ([1]; lb/62287 b-cell lymphoma, LB, 72 h, vehicle 1.0%, read-out: Relative Toxicity at 72 Hours) [%]	viability at 6 h [1, 5] [%]	Relative Toxicity at 6 Hours [2]	Relative Toxicity at 72 Hours [2]	% Cures ([3]; 100 mg lysostaphin infusions on three consecutive days) [%]	Effect on potentiating the in vivo efficacy of lysostaphin ([3]; in words)	Character of potentiation (S. aureus; in words (footnotes, text))	Vehicle Conc. w/Max. Potentiation (%) (S. aureus; with r-lysostaphin)	Tolerability / irritation upon infusion (mammary gland)	Relative Toxicity at 6 Hours [4]	Relative Toxicity at 72 Hours [4]	viability at 6 h ([1]; lb/62287 b-cell lymphoma, Relative Toxicity at 6 Hours) [%]	viability at 72 h ([1]; lb/62287 b-cell lymphoma, Relative Toxicity at 72 Hours) [%]	Clearing of the mammary gland of S. aureus (S. aureus mastitis)
CCCCCCCC(=O)OCC(O)CO (centres unmarked) [IMWITOR ®, Glyceryl monocaprylate]	75 to 90	50 to 74	25 to 49	25 to 49	50 to 74	0 to 24	0 to 24	50 to 74	-	-										
CC(=O)OCC(COC(C)=O)OC(C)=O [Triacetin, glyceryl triacetate]								75 to 90	-	-	25	Neither glycerol nor triacetin (both have a cure rate of 25%) has any significant effect	Potentiates the bactericidal activity of rlysostaphin	10.0	A small amount of irritation to some animals	-	-	75 to 90	0 to 24	
lipopolysaccharide																				able to clear the mammary gland temporarily of S. aureus
